Data taken from PubChem BioAssay (NCI).
Where “and” joins values, the source holds several entries; their conditions need not be identical. Equal values may be shown once.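 Exposure lasted 48 hours, with cells grown in 96-well plates and compounds tested at five concentrations. Here, GI50 denotes the concentration required for 50% inhibition of growth. TGI is the concentration that stops growth completely.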

What was measured:
Assay in all cases: inhibition of tumour cell growth, NCI panel, 48 h
HCC-2998 colon = test system: HCC-2998 colon
HOP-62 NSCLC = test system: HOP-62 NSCLC
HT29 colon = test system: HT29 colon
MCF7 breast = test system: MCF7 breast
MDA-MB-435 = test system: MDA-MB-435
NCI-H460 lung = test system: NCI-H460 lung
RXF 393 renal = test system: RXF 393 renal
NCI-H226 lung = test system: NCI-H226 lung

| Compound | GI50 (HCC-2998 colon) | TGI (HCC-2998 colon) | GI50 (HOP-62 NSCLC) | TGI (HOP-62 NSCLC) | GI50 (HT29 colon) | TGI (HT29 colon) | GI50 (MCF7 breast) | TGI (MCF7 breast) | GI50 (MDA-MB-435) | TGI (MDA-MB-435) | GI50 (NCI-H460 lung) | TGI (NCI-H460 lung) | GI50 (RXF 393 renal) | TGI (RXF 393 renal) | TGI (NCI-H226 lung) | GI50 (NCI-H226 lung) |
| --- | --- | --- | --- | --- | --- | --- | --- | --- | --- | --- | --- | --- | --- | --- | --- | --- |
| CC1(C)OC[C@@H]([C@@]2(CO[Si](C)(C)C(C)(C)C)CC=CC(=O)O2)O1 | 18.6 µM | 34.1 µM | 31 µM | 53.1 µM | 34.5 µM | > 100 µM | 36.8 µM | > 100 µM | 22.8 µM | 57.4 µM | 26.6 µM | > 100 µM | 23.6 µM | 56.3 µM |  |  |
| OC(C1=C/C(=C\c2ccncc2)c2ccccc21)c1ccncc1 (stereo unspecified) |  | 22.3 µM |  | 31.6 µM |  | 32.4 µM |  | 30.7 µM |  | 27.9 µM |  | 28.2 µM |  | 30.6 µM | 31.1 µM |  |
| c1ccc(C(=NNc2nc3ccccc3o2)c2ccccn2)nc1 | 0.0972 µM | 18.4 µM and 1.96 µM | 0.0532 µM |  | < 0.0361 µM | > 66.8 µM and 12.7 µM | 0.0289 µM |  | 0.273 µM | 34.6 µM and 28.3 µM | 0.0575 µM and 0.163 µM | 5.22 µM and 1.5 µM |  | 5.96 µM and 3.95 µM |  | 0.0628 µM |
| C[C@@H]1O[C@@H](O[C@@H]2[C@@H](O)[C@H](OCCc3ccc(O)c(O)c3)O[C@H](COC(=O)/C=C/c3ccc(O)c(O)c3)[C@H]2O)[C@H](O)[C@H](O)[C@H]1O |  |  | > 100 µM | > 100 µM |  |  |  |  | 19.9 µM | 40.1 µM | > 100 µM | > 100 µM |  |  | > 100 µM | > 100 µM |
| COc1ccc2nc(-c3ccccc3)cc(Nc3ccc(C(C)=O)cc3)c2c1 | 2.45 µM | 5.27 µM |  |  | 9.89 µM | > 100 µM | 2.47 µM | 13.9 µM |  |  | 5.73 µM | 19.3 µM |  |  | 3.46 µM | 0.94 µM |
| CC(=O)C1CC2(c3ccc(C)cc3)C(c3ccc(C)cc3)=C(c3ccc(C)cc3)C1(c1ccc(C)cc1)S2=O (stereo unspecified) | > 100 µM | > 100 µM | > 100 µM | > 100 µM | > 100 µM | > 100 µM | > 100 µM | > 100 µM | > 100 µM | > 100 µM | > 100 µM | > 100 µM | > 100 µM | > 100 µM | > 100 µM | > 100 µM |
| N#CC1=C(N)N=C(N2CCCCC2)C(C#N)C12Nc1ccccc1S2 (stereo unspecified) |  |  | 27.7 µM | > 100 µM | 29.8 µM | > 100 µM | 44.9 µM | > 100 µM | 0.0184 µM | 14.3 µM | 27 µM | > 100 µM | 27 µM | 65.1 µM |  |  |
| CC([C@H]1CCC2C3CCC4C[C@@H](NC=O)CC[C@]4(C)C3CC[C@@]21C)N(C)C (stereo partly specified) | 2.48 µM | 7.29 µM | 2.15 µM | 5.19 µM | 0.595 µM | 2.42 µM | 2.06 µM | 7.26 µM | 2.29 µM | 5.86 µM | 1.89 µM | 4.04 µM | 1.77 µM | 4.15 µM | 21 µM | 5.47 µM |
| C=C(Cl)COC(=O)Nc1cccc(Cl)c1 |  | > 100 µM |  | > 100 µM |  | > 100 µM |  | > 100 µM |  | > 100 µM |  | > 100 µM |  | 77.6 µM | > 100 µM |  |
| O=C1CCCCCCCC/C=C/CCC(c2ccco2)O1 (stereo unspecified) | > 100 µM | > 100 µM | 41.2 µM | > 100 µM | 44.1 µM | > 100 µM | 15.8 µM | > 100 µM | 99.6 µM | > 100 µM | > 100 µM | > 100 µM | > 100 µM | > 100 µM | > 100 µM | 34.8 µM |
| Cc1ccccc1CN1CC2=C(CCN(Cc3ccccc3)C2=O)N2CCN=C12 |  | > 70.6 µM |  | > 100 µM |  | > 100 µM |  | > 100 µM |  | > 100 µM |  | > 100 µM |  | > 100 µM | > 100 µM |  |
| CCOC(=O)Cc1csc(/N=C2\NC(=O)/C(=C3\C(=O)N(C)c4ccccc43)S2)n1 | 46.1 µM | > 100 µM | 30.1 µM | 87.9 µM | 44.5 µM | > 100 µM | 46.8 µM | > 100 µM | 36.6 µM | > 100 µM | 20.7 µM | 55.9 µM | 73.3 µM | > 100 µM | > 100 µM | 28.6 µM |
| N#CC1=C(N)NC(=S)NC12Nc1ccccc1O2 (stereo unspecified) |  |  | 17.5 µM | 57.7 µM | 31.2 µM | 90.8 µM | 27.2 µM | > 100 µM | 16.8 µM | > 100 µM | 65.5 µM | > 100 µM | > 100 µM | > 100 µM | > 100 µM | 30.5 µM |
| O=C(Nc1ccc(-n2cc(-c3ccncc3)c(-c3ccc(Cl)c(O)c3)n2)cc1)Nc1cc(C(F)(F)F)cc(C(F)(F)F)c1 | 1.79 µM | 3.37 µM | 1.8 µM | 3.66 µM | 1.95 µM | 3.74 µM | 2.58 µM | 8.15 µM | 1.77 µM | 3.45 µM | 1.92 µM | 3.85 µM | 1.45 µM | 3.45 µM | 10.6 µM | 2.45 µM |
| CC1(C)NCCC[C@]2(C)[C@H]3C=CC4=C5C[C@](C)(CO)CC[C@]5(C)CC[C@@]4(C)[C@]3(C)CC[C@@H]12 | 10.1 µM | 23 µM | 2.3 µM | 5.16 µM | 3.25 µM | 13.8 µM | 3.14 µM | 14.5 µM | 3.76 µM | 14 µM | 4.17 µM | 15.2 µM | 1.84 µM | 4.15 µM | 16.9 µM | 4 µM |
| C=C1C[C@@H]2C/C=C/C(=O)C/C(C)=C\C=C\C(=O)O[C@H](C=O)C/C(C)=C/[C@H](C1)O2 | 0.77 µM | 3.32 µM | 1.75 µM | 17.3 µM | 0.281 µM | 12.6 µM | 0.277 µM | 13.6 µM | 0.316 µM | > 100 µM | 3.07 µM | 16.7 µM |  |  | 49 µM | 8.49 µM |
| c1cc2c(cc1C(N1CCNCC1)N1CCNCC1)OCO2 |  |  |  | > 100 µM |  | > 100 µM |  | > 100 µM |  | > 100 µM |  | > 100 µM |  | > 100 µM | > 100 µM |  |
